Activity calls are given as the source filed them.
Key:
Assay type in all cases: functional
[1] = target: cGMP-dependent protein kinase 1 (Homo sapiens, UniProt Q13976);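 note: value from a kinome panel screen with PRKG1 as the panel member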
[2] = target: Protein kinase C delta type (Homo sapiens, UniProt Q05655)
SRSF protein kinase 1 = SRSF protein kinase 1 (Homo sapiens, UniProt Q96SB4);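 note: measured as one member of a kinome-wide kinase profiling panel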
[3] = target: Tyrosine-protein kinase JAK3 (Homo sapiens, UniProt P52333)
[4] = target: Serine/threonine-protein kinase pim-3 (Homo sapiens, UniProt Q86V86);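 note: value obtained as one member of a broad kinase panel profiling effort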
[5] = target: Non-receptor tyrosine-protein kinase TYK2 (Homo sapiens, UniProt P29597)
[6] = target: Protein kinase C gamma type (Homo sapiens, UniProt P05129)
[7] = target: Glycogen synthase kinase-3 alpha (Homo sapiens, UniProt P49840);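 note: GSK3A result taken from a broad kinome-wide kinase panel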
[8] = target: Receptor-type tyrosine-protein kinase FLT3 (Homo sapiens, UniProt P36888);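 note: FLT3 was tested as one member of a kinome-wide kinase panel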
Receptor-type tyrosine-protein kinase FLT3, sequence (P36888 whole entry): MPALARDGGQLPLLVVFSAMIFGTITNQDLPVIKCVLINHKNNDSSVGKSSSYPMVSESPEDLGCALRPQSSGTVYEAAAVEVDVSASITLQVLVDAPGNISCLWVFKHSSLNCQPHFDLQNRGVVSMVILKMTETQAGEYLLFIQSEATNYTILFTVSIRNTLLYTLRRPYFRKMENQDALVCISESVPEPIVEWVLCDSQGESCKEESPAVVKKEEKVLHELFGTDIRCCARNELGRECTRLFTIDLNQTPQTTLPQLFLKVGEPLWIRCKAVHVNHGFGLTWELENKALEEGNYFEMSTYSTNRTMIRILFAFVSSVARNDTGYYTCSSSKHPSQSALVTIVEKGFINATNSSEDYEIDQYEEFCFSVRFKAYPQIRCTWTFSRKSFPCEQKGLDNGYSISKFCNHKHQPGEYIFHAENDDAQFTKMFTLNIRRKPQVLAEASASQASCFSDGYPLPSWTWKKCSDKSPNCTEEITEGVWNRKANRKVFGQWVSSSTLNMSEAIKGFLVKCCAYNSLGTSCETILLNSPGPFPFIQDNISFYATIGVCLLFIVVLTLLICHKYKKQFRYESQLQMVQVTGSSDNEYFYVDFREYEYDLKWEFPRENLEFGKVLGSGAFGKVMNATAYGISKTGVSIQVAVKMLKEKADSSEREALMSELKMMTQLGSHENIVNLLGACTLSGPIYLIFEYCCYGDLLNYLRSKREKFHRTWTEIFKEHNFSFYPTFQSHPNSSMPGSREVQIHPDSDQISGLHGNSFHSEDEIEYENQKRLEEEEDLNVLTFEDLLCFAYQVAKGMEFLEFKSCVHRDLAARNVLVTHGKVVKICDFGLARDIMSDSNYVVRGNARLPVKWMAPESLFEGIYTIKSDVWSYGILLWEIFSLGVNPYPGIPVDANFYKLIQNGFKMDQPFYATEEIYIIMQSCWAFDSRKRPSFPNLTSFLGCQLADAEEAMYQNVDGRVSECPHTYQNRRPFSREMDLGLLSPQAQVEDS

[9] = target: Serine/threonine-protein kinase Chk1 (Homo sapiens, UniProt O14757);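 note: measured as one member of a kinome-wide kinase profiling panel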
[10] = target: MAP kinase-interacting serine/threonine-protein kinase 2 (Homo sapiens, UniProt Q9HBH9)
MAP kinase-interacting serine/threonine-protein kinase 2, sequence (Q9HBH9 whole entry): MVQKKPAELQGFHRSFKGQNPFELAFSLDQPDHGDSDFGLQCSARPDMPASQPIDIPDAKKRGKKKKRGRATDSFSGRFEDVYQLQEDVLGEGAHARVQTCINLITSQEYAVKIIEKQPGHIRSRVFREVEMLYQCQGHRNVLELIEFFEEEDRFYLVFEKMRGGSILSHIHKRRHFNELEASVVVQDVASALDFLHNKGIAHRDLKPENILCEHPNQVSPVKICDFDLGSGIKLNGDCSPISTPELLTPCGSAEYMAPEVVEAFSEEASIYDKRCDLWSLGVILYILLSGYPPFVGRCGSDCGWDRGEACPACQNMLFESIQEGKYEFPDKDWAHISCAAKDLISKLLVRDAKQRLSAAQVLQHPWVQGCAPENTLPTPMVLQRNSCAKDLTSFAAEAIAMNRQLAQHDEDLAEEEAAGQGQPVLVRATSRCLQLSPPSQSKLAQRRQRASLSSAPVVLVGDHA

[11] = target: Vascular endothelial growth factor receptor 2 (Homo sapiens, UniProt P35968)
Vascular endothelial growth factor receptor 2, sequence (P35968 whole entry): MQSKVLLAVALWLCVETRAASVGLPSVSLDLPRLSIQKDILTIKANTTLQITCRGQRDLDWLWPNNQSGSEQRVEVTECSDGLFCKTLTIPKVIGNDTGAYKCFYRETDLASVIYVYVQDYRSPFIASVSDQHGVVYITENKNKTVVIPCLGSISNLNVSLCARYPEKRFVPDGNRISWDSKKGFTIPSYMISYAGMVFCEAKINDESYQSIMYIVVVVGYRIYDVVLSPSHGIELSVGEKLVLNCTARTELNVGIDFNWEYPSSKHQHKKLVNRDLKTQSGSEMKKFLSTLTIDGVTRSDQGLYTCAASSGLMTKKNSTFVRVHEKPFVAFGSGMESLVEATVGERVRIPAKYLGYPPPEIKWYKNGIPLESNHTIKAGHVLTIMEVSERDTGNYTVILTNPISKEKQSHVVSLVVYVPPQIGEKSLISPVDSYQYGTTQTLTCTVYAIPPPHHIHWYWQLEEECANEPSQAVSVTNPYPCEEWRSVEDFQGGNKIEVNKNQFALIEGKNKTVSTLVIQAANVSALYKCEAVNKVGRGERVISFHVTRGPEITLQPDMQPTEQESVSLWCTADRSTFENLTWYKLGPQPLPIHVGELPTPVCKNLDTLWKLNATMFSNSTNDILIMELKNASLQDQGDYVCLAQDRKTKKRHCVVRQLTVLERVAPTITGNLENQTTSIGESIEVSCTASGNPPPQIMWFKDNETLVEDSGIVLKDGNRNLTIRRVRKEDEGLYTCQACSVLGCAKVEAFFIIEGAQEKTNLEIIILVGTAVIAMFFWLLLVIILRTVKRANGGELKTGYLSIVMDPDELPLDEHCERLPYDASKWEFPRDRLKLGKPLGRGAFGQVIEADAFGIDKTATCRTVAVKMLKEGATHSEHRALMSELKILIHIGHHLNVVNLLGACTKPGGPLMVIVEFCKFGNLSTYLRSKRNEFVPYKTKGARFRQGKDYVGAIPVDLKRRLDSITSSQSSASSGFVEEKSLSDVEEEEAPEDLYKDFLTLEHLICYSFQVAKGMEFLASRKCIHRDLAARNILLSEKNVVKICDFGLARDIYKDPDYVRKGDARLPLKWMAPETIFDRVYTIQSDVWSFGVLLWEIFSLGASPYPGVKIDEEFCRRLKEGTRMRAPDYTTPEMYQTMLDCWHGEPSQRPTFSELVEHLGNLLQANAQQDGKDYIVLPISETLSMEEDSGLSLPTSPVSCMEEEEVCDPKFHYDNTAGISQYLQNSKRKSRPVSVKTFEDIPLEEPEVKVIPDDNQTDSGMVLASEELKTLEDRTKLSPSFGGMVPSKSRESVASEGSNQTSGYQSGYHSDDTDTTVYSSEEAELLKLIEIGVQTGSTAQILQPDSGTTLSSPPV

Misshapen-like kinase 1 = Misshapen-like kinase 1 (Homo sapiens, UniProt Q8N4C8);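 note: kinome panel screen with MINK as the panel member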
[12] = target: Dual specificity tyrosine-phosphorylation-regulated kinase 4 (Homo sapiens, UniProt Q9NR20)
[13] = target: Homeodomain-interacting protein kinase 4 (Homo sapiens, UniProt Q8NE63)
Homeodomain-interacting protein kinase 4, sequence (Q8NE63 whole entry): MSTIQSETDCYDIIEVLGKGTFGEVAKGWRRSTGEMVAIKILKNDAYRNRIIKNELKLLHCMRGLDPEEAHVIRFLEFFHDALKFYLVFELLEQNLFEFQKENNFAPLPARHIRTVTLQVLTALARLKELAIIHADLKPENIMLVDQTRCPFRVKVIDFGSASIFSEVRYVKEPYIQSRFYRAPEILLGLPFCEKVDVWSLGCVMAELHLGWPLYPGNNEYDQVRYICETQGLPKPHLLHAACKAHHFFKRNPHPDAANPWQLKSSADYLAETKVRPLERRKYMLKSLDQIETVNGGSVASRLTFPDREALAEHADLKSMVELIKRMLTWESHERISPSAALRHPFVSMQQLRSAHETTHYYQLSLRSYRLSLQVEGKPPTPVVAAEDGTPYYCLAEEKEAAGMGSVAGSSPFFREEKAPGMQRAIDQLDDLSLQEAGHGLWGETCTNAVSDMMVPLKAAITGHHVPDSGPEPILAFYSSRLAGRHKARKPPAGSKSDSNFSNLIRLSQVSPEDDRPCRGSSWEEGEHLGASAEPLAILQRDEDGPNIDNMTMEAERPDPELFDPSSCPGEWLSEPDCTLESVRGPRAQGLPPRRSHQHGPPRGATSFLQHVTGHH

[14] = target: Serine/threonine-protein kinase pim-2 (Homo sapiens, UniProt Q9P1W9);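 note: value comes from a broad kinase panel profiling study in which PIM2 was one of the panel members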
Serine/threonine-protein kinase pim-2, sequence (Q9P1W9 whole entry): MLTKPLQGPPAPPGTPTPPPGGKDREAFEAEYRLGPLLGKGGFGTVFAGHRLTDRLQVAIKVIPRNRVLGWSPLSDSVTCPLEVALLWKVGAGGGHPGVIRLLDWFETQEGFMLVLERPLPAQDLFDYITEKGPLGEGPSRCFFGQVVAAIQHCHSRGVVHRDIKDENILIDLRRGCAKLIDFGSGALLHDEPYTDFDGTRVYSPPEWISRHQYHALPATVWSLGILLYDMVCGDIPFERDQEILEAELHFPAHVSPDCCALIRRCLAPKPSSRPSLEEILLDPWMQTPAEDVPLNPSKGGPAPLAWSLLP

[15] = target: Serine/threonine-protein kinase Nek2 (Homo sapiens, UniProt P51955)
[16] = target: Macrophage colony-stimulating factor 1 receptor (Homo sapiens, UniProt P07333);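 note: value comes from the Navigating the Kinome screening panel, CSF1R member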
[17] = target: Dual specificity tyrosine-phosphorylation-regulated kinase 1A (Homo sapiens, UniProt Q13627);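 note: measured against DYRK1A as one member of a broad kinome profiling panel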

SRSF protein kinase 1, sequence (Q96SB4 whole entry): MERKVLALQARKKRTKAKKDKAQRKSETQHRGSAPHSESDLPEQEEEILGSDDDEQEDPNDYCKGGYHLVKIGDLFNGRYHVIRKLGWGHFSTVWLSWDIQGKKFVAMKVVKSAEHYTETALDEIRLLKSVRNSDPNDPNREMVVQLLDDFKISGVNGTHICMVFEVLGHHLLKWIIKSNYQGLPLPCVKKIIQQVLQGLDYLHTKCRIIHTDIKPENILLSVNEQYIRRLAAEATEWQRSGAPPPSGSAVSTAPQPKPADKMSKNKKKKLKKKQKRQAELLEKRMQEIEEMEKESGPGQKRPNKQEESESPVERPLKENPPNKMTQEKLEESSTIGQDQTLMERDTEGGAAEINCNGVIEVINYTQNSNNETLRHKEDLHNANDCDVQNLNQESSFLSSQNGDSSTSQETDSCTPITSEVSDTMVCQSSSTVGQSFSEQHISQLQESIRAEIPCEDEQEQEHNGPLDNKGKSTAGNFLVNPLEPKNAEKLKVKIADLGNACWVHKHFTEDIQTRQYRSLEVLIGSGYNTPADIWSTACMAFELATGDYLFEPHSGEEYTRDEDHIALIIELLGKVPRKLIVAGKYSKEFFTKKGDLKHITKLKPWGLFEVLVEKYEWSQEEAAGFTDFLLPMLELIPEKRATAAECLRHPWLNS

Ki [1]: 158 nM (active) | Ki [2]: 200 nM (active) | Ki (SRSF protein kinase 1): 1260 nM (active) | Ki [3]: 1260 nM (active) | Ki [4]: 501 nM (active) | Ki [5]: > 2000 nM (inactive) | Ki [6]: 251 nM (active) | Ki [7]: 158 nM (active) | Ki [8]: 316 nM (active) | Ki [9]: 1260 nM (active) | Ki [10]: 126 nM (active) | Ki [11]: 7940 nM (active) | Ki (Misshapen-like kinase 1): 126 nM (active) | Ki [12]: 158 nM (active) | Ki [13]: 1580 nM (active) | Ki [14]: 1000 nM (active) | Ki [15]: > 10000 nM (inactive) | Ki [16]: > 2510 nM (inactive) | Ki [17]: 7.94 nM (active)
Structure (SMILES): NC1CCCCC1Nc1nccc(-c2c[nH]c3ncccc23)n1 (centres undefined)
